Results as given in the supplement of paper PMC10307832.

Legend:
Assay in all cases: relative viability (nuclei count vs DMSO), 5 days (fraction); higher = more cells survive
[1] = compound: CCC1=CN=CN=C1N2CCN(CC2)CC3=NC4=C(N3)C=C(C=C4)C(F)(F)F + Cc1nc(NC(=O)N2CCC[C@H]2C(N)=O)sc1-c1ccnc(C(C)(C)C(F)(F)F)c1 [Alpelisib] (partner 2 µM)
Outline: (§1)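 Each reported value is a median over duplicate plates. It expresses relative viability: treated-well nuclei count divided by vehicle-well nuclei count. Lung cancer cell lines in 1536-well plates were dosed by pin tool a day after seeding, alone with one drug or with a fixed anchor-drug dose plus five library-drug doses (not always all listed) in √10 steps, and nuclei were counted after 5 days.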

[2] = compound: CCn1c(-c2nonc2N)nc2cnc(Oc3cccc(NC(=O)c4ccc(OCCN5CCOCC5)cc4)c3)cc21 + Nc1ncn([C@H]2C[C@H](O)[C@@H](CO)O2)c(=O)n1 [Decitabine] (partner 2 µM)
Outline: as §1

[3] = compound: N=C1NC(=O)/C(=C/c2ccc(O)cc2)S1 [Mirin] + CS(=O)(=O)N1CCN(Cc2cc3nc(-c4cccc5[nH]ncc45)nc(N4CCOCC4)c3s2)CC1 [Pictilisib] (partner 1 µM)
Outline: as §1

[4] = compound: N=C1NC(=O)/C(=C/c2ccc(O)cc2)S1 [Mirin] + N=C(N)NC(=N)NCCc1ccccc1 [Phenformin] (partner 250 µM)
Outline: as §1

Cell Line | relative viability ([1]; first compound 0.04 µM) | relative viability ([1]; first compound 0.1265 µM) | relative viability ([1]; first compound 0.4 µM) | relative viability ([1]; first compound 1.265 µM) | relative viability ([1]; first compound 4 µM) | relative viability ([2]; first compound 0.04 µM) | relative viability ([2]; first compound 0.1265 µM) | relative viability ([2]; first compound 0.4 µM) | relative viability ([2]; first compound 1.265 µM) | relative viability ([2]; first compound 4 µM) | relative viability ([3]; first compound 0.25 µM) | relative viability ([3]; first compound 0.7906 µM) | relative viability ([3]; first compound 2.5 µM) | relative viability ([3]; first compound 7.906 µM) | relative viability ([3]; first compound 25 µM) | relative viability ([4]; first compound 0.25 µM) | relative viability ([4]; first compound 0.7906 µM) | relative viability ([4]; first compound 2.5 µM) | relative viability ([4]; first compound 7.906 µM) | relative viability ([4]; first compound 25 µM)
NCI-H460 | 0.445 | 0.559 | 0.385 | 0.398 | 0.583 | 0.515 | 0.574 | 0.383 | 0.245 | 0.148 | 0.347 | 0.152 | 0.347 | 0.333 | 0.235 | 0.551 | 0.485 | 0.5 | 0.522 | 0.623
NCI-H650 | 1.02 | 1.1 | 0.968 | 0.997 | 0.965 | 0.288 | 0.318 | 0.301 | 0.237 | 0.32 | 0.835 | – | 0.945 | – | 0.744 | 0.436 | 0.384 | 0.453 | – | 0.546
NCI-H1915 | 1.1 | 1.03 | 1.06 | 0.957 | 1.03 | 0.249 | 0.265 | 0.275 | 0.24 | 0.21 | 0.98 | – | 1.04 | 0.916 | 0.935 | 0.353 | – | 0.364 | 0.356 | 0.386
NCI-H1734 | 0.686 | 0.754 | 0.795 | – | 0.676 | 0.574 | 0.504 | 0.515 | 0.459 | 0.393 | 0.427 | 0.376 | 0.445 | 0.444 | 0.394 | 0.395 | 0.324 | 0.35 | 0.394 | 0.352
NCI-H1993 | 0.593 | 0.623 | 0.743 | 0.77 | 0.727 | 0.557 | 0.616 | 0.652 | 0.496 | 0.531 | 0.748 | 0.698 | 0.893 | 0.818 | 0.782 | 0.459 | – | 0.517 | 0.586 | 0.623
LK-2 | 1.14 | 1.09 | 0.991 | 0.775 | 1.06 | 0.382 | 0.385 | 0.191 | 0.183 | 0.29 | 0.387 | – | 0.537 | 0.271 | 0.222 | 0.408 | – | 0.363 | 0.203 | 0.167
HCC-78 | 0.188 | 0.348 | 0.333 | 0.4 | 0.279 | 0.613 | 0.78 | – | 0.74 | 0.634 | 0.203 | 0.2 | 0.205 | 0.207 | 0.215 | 0.661 | 0.616 | 0.867 | 0.571 | 0.793
NCI-H3122 | 0.954 | 0.77 | 0.856 | 1.01 | 0.872 | 0.429 | 0.428 | 0.49 | 0.401 | 0.42 | 0.541 | 0.515 | 0.576 | 0.673 | 0.7 | 0.378 | 0.426 | 0.414 | 0.378 | 0.467
